The record followed here is the SangsterLogP compilation.

Each structure is given as a SMILES string.

The nature of this data set: method code SF-AS, from DOI: 10.1271/bbb1961.38.1521.
As for `CCCc1cccc(OC(=O)NC)c1`, the logP was 2.64. The result for `CNC(=O)Oc1ccc2ccccc2c1` reads 2.56; that for `CCC(=O)c1ccc(OC(=O)NC)cc1`, 1.55. Consider `CNC(=O)Oc1cc(Cl)cc(Cl)c1`, for which the logP stood at 3.03. Compound `CNC(=O)Oc1cc(C)ccc1C` displayed a logP of 2.03.

Compound `CNC(=O)Oc1cc(C)cc(C(C)C)c1` came in with a logP of 3.1. In the case of `CNC(=O)Oc1cccc(C(C)C)c1` it was 2.63. The result for `CNC(=O)Oc1ccc(SC)c(C)c1` reads 2.47; that for `CNC(=O)Oc1ccc(C(C)(C)C)c(C)c1`, 3.38; that for `CCCCOc1ccc(OC(=O)NC)cc1`, 2.86.

Compound `CNC(=O)Oc1cccc(C(F)(F)F)c1` came in with a logP of 2.37. As for `CNC(=O)Oc1cc(C)ccc1C(C)C`, the logP came to 2.84. In the case of `CNC(=O)Oc1cc(C)cc(C(C)(C)C)c1`, the logP is 3.35. `CNC(=O)Oc1ccc([N+](=O)[O-])cc1` showed a logP of 1.47.

On to `CNC(=O)Oc1ccc(Cl)c(C)c1`, for which the logP is 2.57. Take `CNC(=O)Oc1ccccc1OC`: the logP turned out to be 0.81. `CCC(C)c1ccc(OC(=O)NC)cc1` (stereo unspecified): the logP worked out at 3.2. The result for `CNC(=O)Oc1cccc(Br)c1` reads 2.25; that for `CNC(=O)Oc1ccccc1Br`, 1.77; that for `CCOc1ccccc1OC(=O)NC`, 1.24.

In the case of `CNC(=O)Oc1ccccc1C(C)(C)C`, the logP is 2.65. Consider `CNC(=O)Oc1ccc(Cl)c(Cl)c1`, for which the logP was 2.8. The compound `CNC(=O)Oc1ccccc1I` had a logP of 1.96. The result for `CNC(=O)Oc1cccc(C(=O)OC)c1` reads 1.42; that for `CNC(=O)Oc1ccccc1C(C)C`, 2.31.

`CNC(=O)Oc1ccc(Cl)cc1` registered a logP of 2.01.

`CNC(=O)Oc1ccccc1[N+](=O)[O-]` displayed a logP of 1.02. The compound `CNC(=O)Oc1cccc2ccccc12` showed a logP of 2.36. In turn, `CNC(=O)Oc1ccccc1C#N` returned a logP of 0.86. As to `CNC(=O)Oc1ccc(C#N)cc1`, the logP stood at 0.95. With `CCc1ccccc1OC(=O)NC`, the logP was 1.93. For `CCCc1ccccc1OC(=O)NC`, the logP amounted to 2.4.

In turn, `CNC(=O)Oc1ccc(C=O)cc1` registered a logP of 0.99. For `CNC(=O)Oc1ccc(C(=O)OC)cc1`, the logP was 1.5. In turn, `CNC(=O)Oc1cccc(OC(C)C)c1` registered a logP of 1.96. As to `CNC(=O)Oc1cccc(C)c1C`, the logP was found to be 1.95. `CNC(=O)Oc1cc(C)ccc1C(C)(C)C`: the logP came out at 3.14.

`CNC(=O)Oc1ccc(Br)cc1` came in with a logP of 2.17. The compound `CNC(=O)Oc1ccccc1C` had a logP of 1.46. Regarding `CCCc1ccc(OC(=O)NC)cc1`, the logP was 2.72.

On to `CNC(=O)Oc1ccc(SC)cc1`, for which the log partition coefficient (logP) worked out at 1.92. In the case of `CNC(=O)Oc1cccc(C=O)c1` it was 0.92; in that of `CNC(=O)Oc1cccc(C(C)(C)C)c1`, 2.93; in that of `CCCCOc1cccc(OC(=O)NC)c1`, 2.96. On to `CNC(=O)Oc1cccc(Cl)c1`, for which the logP amounted to 2.03.

For `CNC(=O)Oc1ccccc1F`, the logP came out at 1.25.

`CNC(=O)Oc1ccc(C(C)(C)C)cc1`: the logP is 3.06. For the compound `CNC(=O)Oc1ccc(S(C)(=O)=O)cc1`, the lipophilicity (logP) was determined as 0.34. `CNC(=O)Oc1ccccc1Cl` had a logP of 1.64. With `CNC(=O)Oc1cccc(F)c1`, the logP came out at 1.48. In turn, `CNC(=O)Oc1ccc(C(C)=O)cc1` registered a logP of 1.01.
